Reference: PMC4575030 (PLoS ONE, 2015)

Assays:
[1] = system: rat formalin model of pain; experiment: Formalin test (formalin-induced flinching); type: in vivo; conditions: for Decrease in formalin flinching: phase 2 (10 to 40 min), percent of vehicle
Description: Formalin-induced flinching was measured using the Automated Nociception Analyzer (ANA) (University Anesthesia Research & Development Group, La Jolla, CA). Rats were habituated to the ANA testing chambers for at least 30 minutes prior to the formalin injection. At test time, each rat was removed from the testing chamber and gently wrapped in a towel. 50 μL of 2.5% formalin solution was injected into the dorsal surface of the left hind paw with a 30 gauge needle. A small metal band was then affixed to the plantar side of the injected paw with one drop of super glue. The animal was then unwrapped from the towel, placed back in the testing chamber, and flinching behavior was scored for 40 minutes by the ANA software. While minimized, non-painful paw movement from the natural activity of an alert animal could be erroneously binned by the automated recording system as a nociceptive behavior. These behaviors are not subtracted from the flinching total. […] Total flinching behavior was used as the endpoint of the assay.

rat CFA model of pain = experiment: CFA-induced thermal hyperalgesia; type: in vivo; conditions: 120 min after dosing, 24 h after CFA
Description: CFA-induced thermal hyperalgesia was measured using the Thermal Plantar Analgesia Instrument (Ugo Basile, Italy). Intensity of the radiant heat stimulus was adjusted to achieve a withdrawal latency of approximately 13 s in naïve animals. On test day one, animals were placed on the apparatus in their individual testing chambers with an absorbent towel at the bottom and allowed to habituate for at least 30 minutes. The towel was then removed and animals were allowed to acclimate for at least 15 minutes more. After habituation, animals were placed back in their home cages until the following day. On test day two, animals were placed back in the testing chambers until calm (typically 20 minutes). The thermal device was positioned on the center of the left hind paw and the test was started. The time for the animal to withdraw its paw from the thermal stimulus was recorded. A cut-off of 30 seconds was used to prevent tissue damage. Few trials went past 20 seconds and none past 25 seconds. This procedure was repeated for three trials per animal, each separated by at least 5 min, and trials were averaged to determine baseline withdrawal latencies. After determining baseline measures, each animal received an injection of 50 μl CFA (1:1 emulsion with PBS, Sigma, St. Louis, MO) into the plantar side of the left hind paw with a 26 gauge needle. Animals were then placed back in their home cages until the following day. Approximately 24 h after the CFA injection, withdrawal latencies to heat were determined as described above. Animals were then randomized based on their Post-CFA baseline score and treated with the test compound or vehicle. […] The experimenter was blinded to drug treatment during this assay. Percent return to baseline latency was used as the endpoint of the assay.

SMILES: CC(=O)Nc1cccc(Nc2ncnc(N3CCC(OCc4ccc(OC(F)(F)F)cc4)CC3)n2)c1C [Compound 52, N-(2-methyl-3-((4-(4-((4-(trifluoromethoxy)benzyl)oxy)-1-piperidinyl)-1,3,5-triazin-2-yl)amino)phenyl)acetamide]
- Decrease in formalin flinching ([1]; 3 mg/kg p.o.): 9%
- Decrease in formalin flinching ([1]; 10 mg/kg p.o.): 22%
- Decrease in formalin flinching ([1]; 30 mg/kg p.o.): 79%
- Analgesic efficacy ([1]; rat formalin model, significant (p < 0.05) decrease in flinching at a dose without a reduction in open field movement that obviated the result): Yes
- Reduction in formalin flinching, result in words ([1]; rat formalin test): statistically significant and plasma concentration-dependent reduction in formalin flinching
- Behavioral analgesic efficacy in the formalin model, i.v. delivery ([1]; same formulation and i.v. route as electrophysiology, data not shown): equivalent to morphine
- Average reversal of thermal hyperalgesia compared to baseline (rat CFA model of pain; 10 mg/kg p.o.): 40%
- Average reversal of thermal hyperalgesia compared to baseline (rat CFA model of pain; 30 mg/kg p.o.): 53%
